Experimental data as given in patent US20160051514A1, “METHODS FOR TREATMENT OF CARDIOMYOPATHY” (THE BRIGHAM AND WOMEN'S HOSPITAL, INC., priority 2013, published 2016).
“Also recorded” adds a separate entry of the source.

Columns and labels:
[1] = test system: zebrafish ventricular myocytes expressing 2057del2 plakoglobin; test: Action potentials by current clamp in isolated zebrafish ventricular myocytes; assay type: cell-based, zebrafish (Danio rerio)
Text: (§1) Zebrafish ventricular myocyte isolation and culture: Zebrafish (Danio rerio) were bred and maintained at 28′C with 14 hr exposure to light and 10 hr to dark (day/night cycle) according to IACUC-approved protocols. Hearts were extracted from anesthetized fish at 21-56 days post-fertilization(dpf) using micro-dissecting tweezers (Roboz Surgical Instruments), washed vigorously in culture medium (M199, primocin, HEPES, L-glutamine, 10% fetal bovine serum) and placed in fresh medium. Ventricles were separated at the atrio-ventricular junction, pooled in a tube containing enzyme solution (HBSS without calcium/magnesium, Trypsin, PCN/Streptomycin, HEPES) at 37° C. and agitated in a thermomixer at 1000-1200 RPM. Dissociated cells were collected every 10 min from supernatants and transferred to tubes containing culture medium and 10% fetal bovine srum to halt trypsinization. Cells were then pelleted by centrifugation, resuspended in fresh culture medium, and seeded on sterile cover slips coated with laminin (20 μg/ml)^11 at 28° C. in a 5% CO2 incubator. After 36 hr, culture medium was changed and unattached cells were removed.
After opening the gigaseal, the microelectrode amplifier (HEKA, EP-10, Lambrecht, Germany) was set to zero holding current and cells were stimulated at a frequency of 0.5 to 1 Hz. Recordings were corrected for a junction potential of 12 mV.^12,13
as §1, with “culture:” for “culture: Zebrafish (Danio rerio) were bred and maintained at 28′C with 14 hr exposure to light and 10 hr to dark (day/night cycle) according to IACUC-approved protocols.”, “3-4 or 5-7 weeks post-fertilization” for “21-56 days post-fertilization(dpf)”, “(calcium/magnesium free-HBSS containing trypsin, penicillin/streptomycin,” for “(HBSS without calcium/magnesium, Trypsin, PCN/Streptomycin,”, “serum” for “srum”, “μg/ml)” for “μg/ml)^11”, “28.5°” for “28°”
Cellular electrophysiology methods: Current clamp experiments in isolated neonatal rat and zebrafish ventricular myocytes were carried out using standard protocols (31). […] After opening the gigaseal, the microelectrode amplifier (HEKA, EP-10, Lambrecht, Germany) was set to zero holding current and cells were stimulated at a frequency of 0.5 to 1 Hz. Recordings were corrected for a junction potential of 12 mV (32,33). The chemical composition of the external and pipette solutions is described in supplemental material.

[2] = test system: neonatal rat ventricular myocytes expressing 2057del2 plakoglobin; test: Cytokine expression in conditioned culture media; assay type: cell-based; details: transfected cells
Method: (§2) Cytokine expression: Conditioned culture media (after 24 or 48 hr) from control cells and cells expressing 2057del2-plakoglobin in the presence or absence of SB216763 (5 μM, 24 hr) were collected, mixed with a cocktail of biotinylated detection antibodies and incubated with nitro-cellulose membranes spotted in duplicate with control and capture antibodies (R&D Systems). Chemiluminescent signal produced at each spot corresponded to the amount of cytokine bound. Conditioned media from control, un-transfected cultures were assayed for cytokine expression for control purposes.
as §2, with “from” for “from control cells and”, “2057del2 plakoglobin” for “2057del2-plakoglobin”, “non-transfected” for “control, un-transfected”, “as controls.” for “for control purposes.”

[3] = test system: nppb::luciferase reporter; test: nppb::luciferase reporter chemical screen in 2057del2 plakoglobin zebrafish embryos; assay type: in vivo; details: 72 hpf, 3 μM in the well between 48 and 72 hpf
Method: Chemical screening: Chemicals were dissolved in DMSO (Sigma-Aldrich, St. Louis, Mo., USA). Embryos (double homozygous for the 2057del2 plakoglobin mutation and the nppb::luciferase reporter) were arrayed in 96 well plates in HEPES-buffered E3 medium and small molecules were pin-transferred (200 n1) from arrayed chemical libraries. Positive (untreated wild type nppb::luciferase embryos) and negative controls (untreated 2057del2 plakoglobin/nppb::luciferase fish) were included in each plate. […] Each set of compounds was tested in duplicate to improve the discriminatory power of the assay. After being evaluated for viability, an equal volume of long half-life luciferase reagent (Promega Steady Glo™) was added to each well. The plate was then incubated in the dark for 60 min and activities were measured with a Victor 3™ luminometer (Perkin-Elmer). Each measurement was performed in duplicate and results were normalized to the number of fish in the well. Follow-up chemical treatments were performed in HEPES-buffered E3 medium in petri dishes.

[4] = test system: 2057del2 plakoglobin (Plk) transgenic mice; test: Mouse model of AC: transgenic cardiac myocyte-specific 2057del2 plakoglobin (Plk); assay type: in vivo; details: daily injections for 6 weeks
Method: (§3) 2 different mouse models of AC were studied: a transgenic line with cardiac myocyte-specific expression of 2057del2 plakoglobin (Plk) and a mutant desmoglein-2 (Dsg2) knock-in model. ECG telemetry and echocardiographic analyses were performed in mutant and wildtype mice treated with daily injections of SB216763 or vehicle for 6 (2057del2 Plk) or 13 (Dsg2) weeks. Hearts excised at selected time points were analyzed for histology, apoptosis and distribution of key intercalated disk proteins.

[5] = test system: mutant desmoglein-2 (Dsg2) knock-in mice; test: Mouse model of AC: mutant desmoglein-2 (Dsg2) knock-in; assay type: in vivo; details: daily injections for 13 weeks
Method: as §3

[6] = 3-4 weeks post-fertilization, 2057del2 plakoglobin + SB2
[7] = 3-4 weeks post-fertilization, Control + SB2
[8] = 5-7 weeks post-fertilization, 2057del2 plakoglobin + SB2, embryos treated at 1 dpf for 6 days (3.0 μM)
[9] = 5-7 weeks post-fertilization, Control + SB2, embryos treated at 1 dpf for 6 days (3.0 μM)
[10] = embryos treated at 1 dpf for 6 days, myocytes studied at 5-7 weeks

In the case of `Cn1cc(C2=C(c3ccc(Cl)cc3Cl)C(=O)NC2=O)c2ccccc21` [SB216763], the Action potential duration [1, 6] was 175 ms, the Maximal upstroke velocity [1, 6] was 22 V/s and the Resting membrane potential [1, 6] was −75 mV. It also gave an Action potential duration [1, 7] of 173 ms, a Maximal upstroke velocity [1, 7] of 35 V/s and a Resting membrane potential [1, 7] of −79 mV. For the same compound, the Action potential duration [1, 8] was 154 ms, the Maximal upstroke velocity [1, 8] was 66 V/s and the Resting membrane potential [1, 8] was −78 mV. For the same compound, the Action potential duration [1, 9] was 195 ms, the Maximal upstroke velocity [1, 9] was 53 V/s and the Resting membrane potential [1, 9] was −77 mV. The “Effect on APD80% in fish expressing mutant plakoglobin” value [1, 10] was “shortened APD8O% beyond control levels; also recorded: shortened APD80% beyond control levels”, the “Effect on RMP and dV/dtmax in fish expressing mutant plakoglobin” value [1, 10] was “normalized RMP and dV/dtmax” and the “Effect on action potentials in myocytes from control fish” value [1, 10] was “had no effect on action potentials; also recorded: did not affect action potentials”. The “Effect on action potential remodeling, short-term exposure of isolated cells” value ([1]; isolated myocytes from transgenic fish treated in culture for 36 hr) was “normalized action potential remodeling”, the “Cytokine levels in culture medium, 48 hr exposure” value ([2]; 5 μM, 48 hr) was “clear reduction in cytokine levels; also recorded: restored the cytokine profile to control levels” and the “Cytokine profile in culture medium, 24 hr exposure” value ([2]; 24 hr) was “no apparent effect on cytokines; also recorded: had no apparent effect on the cytokine profile”. For the same compound, the “nppb expression / nppb::luciferase activity” value [3] was “normalizer of the nppb response; also recorded: reduced nppb expression”, the “nppb expression / nppb::luciferase activity” value ([3]; listed as SB2) was “reduced nppb expression” and the “nppb expression / nppb::luciferase activity” value ([3]; listed as SB216736) was “normalized nppb::luciferase activity”. For the same compound, the “Myocyte necrosis, fibrosis and inflammation” value [4] was “nearly absent”, the “Redistribution of junctional signals for Plk, Cx43 and SAP97, and myocardial apoptosis” value [4] was “normalized” and the PVCs ([4]; ECG telemetry) was 2.8 ± 0.6 min⁻¹. The QRS duration [5] was 17.1 ± 2.7 ms, the “Redistribution of junctional signals for Plk, Cx43 and SAP97, and myocardial apoptosis” value [5] was “normalized” and the “Ejection fraction (EF)” value ([5]; echocardiography) was 73.9±6.9%. The “Fractional shortening (FS)” value ([5]; echocardiography) was 50.2±6.6%.
